Results: patent US6465440B2, “Antimutagenic compositions for treatment and prevention of photodamage to skin” (Wellstat Therapeutics Corporation, priority 1997, dated 2002)

What was measured:
v-Ha-ras TG.AC mice = assay: Individual deoxyribonucleosides versus combination on UV-induced tumorigenesis in v-Ha-ras TG.AC mice; format: in vivo, mouse; settings: UV 1.25 kJ/m^2 on days 0, 6, 8 and 11; 4 mg/ml (each) in propylene glycol beginning 30 minutes after irradiation; vehicle 1.8
Protocol: Thirty v-Ha-ras TG.AC mice aged twelve weeks were shaved and subjected to ultraviolet radiation, 1.25 kJ/m^2 on days 0, 6, 8 and 11, at a dose rate of 12.5 W/m2. Mice were divided into groups of five animals each and treated, beginning 30 minutes after irradiation, with: 1. Vehicle (propylene glycol) 2.

human fibroblasts [1] = assay: Individual versus combined deoxyribonucleosides on photodynamically enhanced UV-induced DNA strand breaks; format: cell-based; settings: UV with 2 μM oxybenzone; individual compounds 20 μM, combination 20 μM each; UV + vehicle .325
Protocol: Confluent human fibroblasts were exposed to 2 micromolar oxybenzone (OB), as in Example 3, prior to exposure to UV-B radiation (50 J/m^2). Different flasks of cells also were exposed to increasing concentrations of deoxyribonucleosides. Cells were processed for determination of nucleoid position in a sucrose density gradient, a measure of DNA single strand breaks. […] Individual deoxyribonucleosides were tested at concentrations of 20 μM, and the combination of all four deoxyribonucleosides contained thymidine, deoxycytidine. deoxyadenosine and deoxyguanosine at 20 μM each.

human fibroblasts [2] = assay: UV-induced DNA single strand breaks (nucleoid position, alkaline sucrose gradient) with oxybenzone; format: cell-based
Protocol: (§1) Confluent human fibroblasts in T25 flasks were washed 3 times with HBSS (Hank's Balanced Salt Solution) and incubated with vehicle or with various concentrations of oxybenzone (OB) for 2 hours. Media was aspirated and cells were covered with a 1 mm layer of HBSS and irradiated from above with UV-B (50 J/m^2). The medium was aspirated and cells were incubated for three hours with 2 mM hydroxyurea. Medium was again aspirated, and cells were trypsinized with 0.25% trypsin/EDTA. Cells were centrifuged at 4° C., resuspended in 50 microliters of HBSS and incubated at room temperature with 200 microliters of 1N NaOH for 15 minutes. DNA damage (single strand breaks) was assessed by alkaline sucrose gradient centrifugation. “Nucleoid position” in the sucrose gradient is proportional to the number of DNA single strand breaks.

human fibroblasts [3] = assay: Photodynamic enhancement of DNA damage by UV plus oxybenzone, attenuation by deoxyribonucleosides (nucleoid position); format: cell-based; settings: UV + 2 μM OB, no dNsides
Protocol: as §1
Confluent human fibroblasts were exposed to 2 micromolar oxybenzone (OB), as in Example 3, prior to exposure to UV-B radiation (50 J/m^2). Different flasks of cells also were exposed to increasing concentrations of deoxyribonucleosides. Cells were processed for determination of nucleoid position in a sucrose density gradient, a measure of DNA single strand breaks.

Human melanocytes = assay: Nitric oxide-induced DNA strand breaks with or without UV (pulsed field gel electrophoresis); format: cell-based
Protocol: Human melanocytes were exposed to 160 μM DETA NONOate (Alexis Corporation, Cat #430-014-M005), a reagent which spontaneously produces nitric oxide when exposed to water. Cells were exposed to NO alone, or NO plus increasing doses of UV radiation (50 and 300 J/m^2). Groups of cells were also exposed to deoxyribonucleosides of the invention before, or before and after, exposure to NO or NO+UV radiation; control groups were treated identically except for addition of deoxyribonucleosides.
DNA was extracted from cells and subjected to pulsed field gel electrophoresis to determine the incidence of DNA strand breaks.

SMILES | Papillomas/mouse at the end of 8 weeks (v-Ha-ras TG.AC mice) | DNA Strand Breaks (human fibroblasts [1]) | also measured
Nc1nc2c(ncn2[C@H]2C[C@H](O)[C@@H](CO)O2)c(=O)[nH]1 [deoxyguanosine, Deoxyguanosine] | 1.0 Papillomas/mouse | .17 Breaks/47 MDa | 
COc1ccc(C(=O)c2ccccc2)c(O)c1 [OB, oxybenzone (benzophenone-3)] |  |  | Nucleoid Position (human fibroblasts [2]; UV 50 J/m^2 + 2 μM OB, 2 hours preincubation): 32 mm; Nucleoid Position (human fibroblasts [2]; UV 50 J/m^2 + 20 μM OB): 4 mm; Nucleoid Position (human fibroblasts [2]; UV 50 J/m^2 + 200 μM OB): 3 mm; Nucleoid position relative to non-irradiated cells (human fibroblasts [2]; UV 50 J/m^2 + 2 micromolar OB): 10 fold; Nucleoid Position (human fibroblasts [3]): 56 mm
Nc1ccn([C@H]2C[C@H](O)[C@@H](CO)O2)c(=O)n1 [deoxycytidine, Deoxycytidine] | 0.25 Papillomas/mouse | .12 Breaks/47 MDa | 
Cc1cn([C@H]2C[C@H](O)[C@@H](CO)O2)c(=O)[nH]c1=O [thymidine, Thymidine] | 1.6 Papillomas/mouse | .13 Breaks/47 MDa | 
[N]=O [NO, Nitric oxide] |  |  | DNA Strand Breaks (Human melanocytes; NO + UV 50 J/m^2): 0.21 breaks/105 MDa; DNA Strand Breaks (Human melanocytes; NO + UV 300 J/m^2): 0.51 breaks/105 MDa; DNA Strand Breaks (Human melanocytes; NO alone (160 μM DETA NONOate)): 0.13 breaks/105 MDa
Nc1ncnc2c1ncn2[C@H]1C[C@H](O)[C@@H](CO)O1 [deoxyadenosine, Deoxyadenosine] | 0.67 Papillomas/mouse | .17 Breaks/47 MDa | 
